From patent publication US11173162B2, “Bicyclic heterocycles as FGFR4 inhibitors” (Incyte Corporation, priority 2015, dated 2021)

These compounds were tested on FGFR3 enzyme (assay: FGFR Enzymatic Assay (FRET peptide phosphorylation), FGFR3). Details: IC50 ratio showing FGFR3 selectivity; Table 2A, pre-incubated for 4 hours.
Type: biochemical
Procedure: The inhibitor potency of the exemplified compounds was measured in an enzyme assay that measures peptide phosphorylation using FRET measurements to detect product formation. Inhibitors were serially diluted in DMSO and a volume of 0.5 μL was transferred to the wells of a 384-well plate.
GraphPad prism3 was used to analyze the data.

Row | Compound | FGFR1/FGFR3 | FGFR4/FGFR3
1 | COc1cc(OC)c(F)c(N2Cc3cnc(-c4cn(C)nc4C)cc3N(Cc3cccnn3)C2=O)c1F [Example 88, 3-(2,6-difluoro-3,5-dimethoxyphenyl)-7-(1,3-dimethyl-1H-pyrazol-4-yl)-1-(pyridazin-3-ylmethyl)-3,4-dihydropyrido[4,3-d]pyrimidin-2(1H)-one] | >5 | >10
2 | CCc1cnc(N2C(=O)N(c3c(F)c(OC)cc(OC)c3F)Cc3cnc(-c4cn(C)nc4C)cc32)cn1 [Example 106, 3-(2,6-difluoro-3,5-dimethoxyphenyl)-7-(1,3-dimethyl-1H-pyrazol-4-yl)-1-(5-ethylpyrazin-2-yl)-3,4-dihydropyrido[4,3-d]pyrimidin-2(1H)-one] | >3 | >5
3 | COc1cc(OC)c(F)c(N2Cc3cnc(-c4cn(C)nc4C)cc3N(C(C)C)C2=O)c1F [Example 90, 3-(2,6-difluoro-3,5-dimethoxyphenyl)-7-(1,3-dimethyl-1H-pyrazol-4-yl)-1-isopropyl-3,4-dihydropyrido[4,3-d]pyrimidin-2(1H)-one] | >5 | >5
4 | COc1cc(OC)c(F)c(N2Cc3cnc(-c4cnn(CC5CN(C(C)=O)C5)c4)cc3C3(CC3)C2=O)c1F [Example 167, 6′-(1-((1-acetylazetidin-3-yl)methyl)-1H-pyrazol-4-yl)-2′-(2,6-difluoro-3,5-dimethoxyphenyl)-1′H-spiro[cyclopropane-1,4′-[2,7]naphthyridin]-3′(2′H)-one] | >3 | >3
5 | CCc1cc(CN2C(=O)N(c3c(F)c(OC)cc(OC)c3F)Cc3cnc(-c4cn(C)nc4C)cc32)no1 [Example 64, 3-(2,6-difluoro-3,5-dimethoxyphenyl)-7-(1,3-dimethyl-1H-pyrazol-4-yl)-1-((5-ethylisoxazol-3-yl)methyl)-3,4-dihydropyrido[4,3-d]pyrimidin-2(1H)-one] | >10 | >10
6 | COc1cc(OC)c(F)c(N2Cc3cnc(-c4cn(C)nc4C)cc3N(Cc3ccnc(C)c3)C2=O)c1F [Example 68, 3-(2,6-difluoro-3,5-dimethoxyphenyl)-7-(1,3-dimethyl-1H-pyrazol-4-yl)-1-((2-methylpyridin-4-yl)methyl)-3,4-dihydropyrido[4,3-d]pyrimidin-2(1H)-one] | >5 | >5
7 | COc1cc(OC)c(F)c(N2Cc3cnc(-c4cnn(CC5CN(S(C)(=O)=O)C5)c4)cc3C3(CC3)C2=O)c1F [Example 166, 2′-(2,6-difluoro-3,5-dimethoxyphenyl)-6′-(1-((1-(methylsulfonyl)azetidin-3-yl)methyl)-1H-pyrazol-4-yl)-1′H-spiro[cyclopropane-1,4′-[2,7]naphthyridin]-3′(2′H)-one] | >3 | >3
8 | COc1cc(OC)c(F)c(N2Cc3cnc(-c4cn(C)nc4C)cc3N(c3ccc(-n4cccn4)cc3)C2=O)c1F [Example 77, 1-(4-(1H-pyrazol-1-yl)phenyl)-3-(2,6-difluoro-3,5-dimethoxyphenyl)-7-(1,3-dimethyl-1H-pyrazol-4-yl)-3,4-dihydropyrido[4,3-d]pyrimidin-2(1H)-one] | >5 | >10
9 | COc1cc(OC)c(F)c(N2Cc3cnc(-c4cnn(CCN5CCC(OC)CC5)c4)cc3C3(CC3)C2=O)c1F [Example 152, 2′-(2,6-difluoro-3,5-dimethoxyphenyl)-6′-(1-(2-(4-methoxypiperidin-1-yl)ethyl)-1H-pyrazol-4-yl)-1′H-spiro[cyclopropane-1,4′-[2,7]naphthyridin]-3′(2′H)-one] | >5 | >3
10 | CCCN1C(=O)N(c2c(F)c(OC)cc(OC)c2F)Cc2cnc(-c3cn(C)nc3C)cc21 [Example 30, 3-(2,6-difluoro-3,5-dimethoxyphenyl)-7-(1,3-dimethyl-1H-pyrazol-4-yl)-1-propyl-3,4-dihydropyrido[4,3-d]pyrimidin-2(1H)-one] | >1 | >5
11 | CCN1C(=O)N(c2c(F)c(OC)cc(OC)c2F)Cc2cnc(-c3ccc(C4(C#N)CCC4)cc3)cc21 [Example 181, 1-(4-(3-(2,6-difluoro-3,5-dimethoxyphenyl)-1-ethyl-2-oxo-1,2,3,4-tetrahydropyrido[4,3-d]pyrimidin-7-yl)phenyl)cyclobutanecarbonitrile] | >5 | >10
12 | CCN1C(=O)N(c2c(F)c(OC)cc(OC)c2F)Cc2cnc(-c3ccc(N4CCOCC4)nc3)cc21 [Example 182, 3-(2,6-difluoro-3,5-dimethoxyphenyl)-1-ethyl-7-(6-morpholinopyridin-3-yl)-3,4-dihydropyrido[4,3-d]pyrimidin-2(1H)-one] | >5 | >5
13 | COc1cc(OC)c(F)c(N2Cc3cnc(-c4cn(C)nc4C)cc3N(C3CCN(S(C)(=O)=O)CC3)C2=O)c1F [Example 71, 3-(2,6-difluoro-3,5-dimethoxyphenyl)-7-(1,3-dimethyl-1H-pyrazol-4-yl)-1-(1-(methylsulfonyl)piperidin-4-yl)-3,4-dihydropyrido[4,3-d]pyrimidin-2(1H)-one] | >5 | >3
14 | COc1cc(OC)c(F)c(N2Cc3cnc(-c4cn(C)nc4C)cc3N(c3cccnc3)C2=O)c1F [Example 86, 3-(2,6-difluoro-3,5-dimethoxyphenyl)-7-(1,3-dimethyl-1H-pyrazol-4-yl)-1-(pyridin-3-yl)-3,4-dihydropyrido[4,3-d]pyrimidin-2(1H)-one] | >5 | >10
15 | COc1cc(OC)c(F)c(N2Cc3cnc(-c4cn(CCN5CCOCC5)nc4C)cc3C3(CC3)C2=O)c1F [Example 52, 2′-(2,6-difluoro-3,5-dimethoxyphenyl)-6′-(3-methyl-1-(2-morpholinoethyl)-1H-pyrazol-4-yl)-1′H-spiro[cyclopropane-1,4′-[2,7]naphthyridin]-3′(2′H)-one] | >10 | >1
16 | COc1cc(OC)c(F)c(N2Cc3cnc(-c4cn(C)nc4C)cc3N(c3cc(F)cc(F)c3)C2=O)c1F [Example 103, 3-(2,6-difluoro-3,5-dimethoxyphenyl)-1-(3,5-difluorophenyl)-7-(1,3-dimethyl-1H-pyrazol-4-yl)-3,4-dihydropyrido[4,3-d]pyrimidin-2(1H)-one] | >3 | >5
17 | CCN1C(=O)N(c2c(F)c(OC)cc(OC)c2F)Cc2cnc(-c3ccc(C(C)(C)C#N)nc3)cc21 [Example 26, 2-(5-(3-(2,6-difluoro-3,5-dimethoxyphenyl)-1-ethyl-2-oxo-1,2,3,4-tetrahydropyrido[4,3-d]pyrimidin-7-yl)pyridin-2-yl)-2-methylpropanenitrile] | >5 | >5
18 | COc1cc(OC)c(F)c(N2Cc3cnc(-c4cn(C)nc4C)cc3N(c3ccnnc3)C2=O)c1F [Example 57, 3-(2,6-difluoro-3,5-dimethoxyphenyl)-7-(1,3-dimethyl-1H-pyrazol-4-yl)-1-(pyridazin-4-yl)-3,4-dihydropyrido[4,3-d]pyrimidin-2(1H)-one] | >10 | >10
19 | COc1cc(OC)c(F)c(N2Cc3cnc(-c4cn(C5CCN(CC#N)C5)nc4C)cc3C3(CC3)C2=O)c1F (centres unmarked) [Example 154, 2-(3-(4-(2′-(2,6-difluoro-3,5-dimethoxyphenyl)-3′-oxo-2′,3′-dihydro-1′H-spiro[cyclopropane-1,4′-[2,7]naphthyridine]-6′-yl)-3-methyl-1H-pyrazol-1-yl)pyrrolidin-1-yl)acetonitrile] | >5 | >3
20 | COC(=O)Nc1ccc(N2C(=O)N(c3c(F)c(OC)cc(OC)c3F)Cc3cnc(-c4cn(C)nc4C)cc32)cc1 [Example 123, Methyl 4-(3-(2,6-difluoro-3,5-dimethoxyphenyl)-7-(1,3-dimethyl-1H-pyrazol-4-yl)-2-oxo-3,4-dihydropyrido[4,3-d]pyrimidin-1(2H)-yl)phenylcarbamate] | >5 | >3
21 | CCCn1cc(N2C(=O)N(c3c(F)c(OC)cc(OC)c3F)Cc3cnc(-c4cn(C)nc4C)cc32)cn1 [Example 132, 3-(2,6-difluoro-3,5-dimethoxyphenyl)-7-(1,3-dimethyl-1H-pyrazol-4-yl)-1-(1-propyl-1H-pyrazol-4-yl)-3,4-dihydropyrido[4,3-d]pyrimidin-2(1H)-one] | >3 | >5
22 | CCN1C(=O)N(c2c(F)c(OC)cc(OC)c2F)Cc2cnc(-c3cn(CCN4CCOCC4)nc3C)cc21 [Example 49, 3-(2,6-difluoro-3,5-dimethoxyphenyl)-1-ethyl-7-(3-methyl-1-(2-morpholinoethyl)-1H-pyrazol-4-yl)-3,4-dihydropyrido[4,3-d]pyrimidin-2(1H)-one] | >5 | >1
23 | COc1cc(OC)c(F)c(N2Cc3cnc(-c4cn(C)nc4C)cc3N(c3cnn(C4CC4)c3)C2=O)c1F [Example 130, 1-(1-cyclopropyl-1H-pyrazol-4-yl)-3-(2,6-difluoro-3,5-dimethoxyphenyl)-7-(1,3-dimethyl-1H-pyrazol-4-yl)-3,4-dihydropyrido[4,3-d]pyrimidin-2(1H)-one] | >5 | >5
24 | COc1cc(OC)c(F)c(N2Cc3cnc(-c4cn(C)nc4C)cc3N(c3ccncn3)C2=O)c1F [Example 45, 3-(2,6-difluoro-3,5-dimethoxyphenyl)-7-(1,3-dimethyl-1H-pyrazol-4-yl)-1-pyrimidin-4-yl-3,4-dihydropyrido[4,3-d]pyrimidin-2(1H)-one] | >10 | >10
25 | COc1cc(OC)c(F)c(N2Cc3cnc(-c4cn(C)nc4C)cc3N(c3cccc(-c4cnnn4C)c3)C2=O)c1F [Example 89, 3-(2,6-difluoro-3,5-dimethoxyphenyl)-7-(1,3-dimethyl-1H-pyrazol-4-yl)-1-(3-(1-methyl-1H-1,2,3-triazol-5-yl)phenyl)-3,4-dihydropyrido[4,3-d]pyrimidin-2(1H)-one] | >5 | >10
